# Experiments:
# Type in all cases: cell-based
# [1] = tested on: human adipocytes; assay: Glycerol release assay
# Description: (§1) Human pre-adipocytes were isolated by liposuction and maintained in AGM for three weeks in order to permit the pre-adipocytes to differentiate to become mature adipocytes. AGM was removed, and adipocytes were incubated in Krebs-Ringers buffer comprising 0.1% fatty acid-free BSA at 37° C. for five hours in the presence of selected concentrations (10^−9 to 10^−5 molar) of one of Schistocera gregaria AKH II, cockroach hypertrehalosemic factor (obtained from Sigma Chemical Co, St. Louis, Mo., catalog number P0175), and Locusta migratoria AKH I (obtained from American Peptide Co., Sunnyvale, Calif., catalog number 60-9-18). Glycerol released from the adipocytes was assayed using a commercially available kit (GPO-trinder assay kit available form Sigma Chemical Company, St. Louis, Mo.).
# A similar experiment was performed, in which glycerol release from adipocytes was assessed in the presence of the Locusta migratoria AKH I or the cockroach hypertrehalosemic factor or in the presence of isoproterenol.
# [2] = tested on: human adipocytes; assay: Effect of propanolol on agent-induced glycerol release; settings: agent 10 micromolar
# Description: as §1
# Glycerol release assays were performed as described in Example 2, except that the assays were performed using single selected concentrations of one of cockroach hypertrehalosemic factor, Locusta migratoria AKH I, and isoproterenol and multiple selected concentrations of propanolol.
# [3] = tested on: human adipocytes; assay: Release of tritium label from radiolabeled palmitate (lipid mobilizing activity); settings: for % Tritium Label Release with Agent: 4 hours, 37° C., Table 6 experiment
# Description: Lipid mobilizing activity was assessed by assaying release of tritium label from radiolabeled palmitate. This assay was performed by maintaining human pre-adipocytes in Adipocyte Growth Medium (AGM), which is Dulbecco's Modified Eagle's Medium (DMEM) mixed 1:1 by volume with Ham's F-10 medium. Ham's F-10 medium comprises 15 millimolar HEPES buffer adjusted to pH 7.4 and supplemented with biotin, pantothenate, human recombinant insulin, dexamethasone, fungicide, bactericide, and 3% (v/v) fetal bovine serum). Pre-adipocytes differentiated to become mature adipocytes by three weeks of maintenance in AGM. On the day prior to assay, the adipocytes were washed and incubated overnight in Krebs-Ringers buffer comprising 0.1% fatty acid-free bovine serum albumin (BSA) and comprising 1 microCurie per milliliter of tritiated (9,10-^3H) palmitate. The following day, the medium was removed, and the cells were washed three times […]. Isoproterenol (0 to 5×10^−8 molar), Schistocera gregaria AKH II (0 to 5×10^−5 molar), or Krebs-Ringer buffer (with 0.1% fatty acid-free BSA) containing neither of these was added to the cell suspension in a volume of 150 microliters. The suspensions were incubated for 4 hours at 37° C., and then 100 microliters of each sample was subjected to scintillation counting to detect released label in the supernatant. The total amount of label incorporated was determined for each well by solubilizing the cells using 1% sodium dodecyl sulfate and subjecting the entire contents of the well to scintillation counting. Fractional release of label was calculated by dividing the amount of label detected in cell supernatant by the total amount of label detected in the supernatant and in the cells remaining in the well, and percentage release was calculated by multiplying fractional release by 100.
# A similar study was done using the same methods, except that cockroach hypertrehalosemic factor (0 to 5×10^−5 molar) was used in place of S. gregaria AKH II.
# A similar tritium label release experiment performed using Heliothis zea AKH II and Locusta migratoria, except that a two-hour incubation period was used in place of a 4 hour incubation period.
sequence,measurement,setting,value
"EVNFSPGWGT (listed as Gromphadorhina portentosa) [cockroach hypertrehalosemic factor, insect AKH family peptide, Sigma Chemical Co. catalog number P0175]",Glycerol Release with Agent (medium concentration in millimolar),"[1]; agent 1 × 10^−5, Table 9 experiment",0.1515 ± 0.0155 millimolar
same,Glycerol Release with Agent (medium concentration in millimolar),"[1]; agent 1 × 10^−5 molar, five hours, 37° C., Table 8 experiment",1.124 millimolar
same,Glycerol Release with Agent (medium concentration in millimolar),"[1]; agent 1 × 10^−6, Table 9 experiment",0.1216 ± 0.0103 millimolar
same,Glycerol Release with Agent (medium concentration in millimolar),"[1]; agent 1 × 10^−6 molar, five hours, 37° C., Table 8 experiment",0.555 millimolar
same,Glycerol Release with Agent (medium concentration in millimolar),"[1]; agent 1 × 10^−7, Table 9 experiment",0.0944 ± 0.00166 millimolar
same,Glycerol Release with Agent (medium concentration in millimolar),"[1]; agent 1 × 10^−7 molar, five hours, 37° C., Table 8 experiment",0.527 millimolar
same,Glycerol Release with Agent (medium concentration in millimolar),"[1]; agent 1 × 10^−8, Table 9 experiment",0.0817 ± 0.0113 millimolar
same,Glycerol Release with Agent (medium concentration in millimolar),"[1]; agent 1 × 10^−8 molar, five hours, 37° C., Table 8 experiment",0.451 millimolar
same,Glycerol Release with Agent (medium concentration in millimolar),"[1]; agent 1 × 10^−9 molar, five hours, 37° C., Table 8 experiment",0.603 millimolar
same,Ability to promote lipid mobilization in human adipocytes,[1]; conclusion of Example 2,able to promote lipid mobilization
same,Glycerol Release with Agent (medium concentration in millimolar),[2]; propanolol 0 molar,0.1515 ± 0.0155 millimolar
same,Glycerol Release with Agent (medium concentration in millimolar),[2]; propanolol 1 × 10^−5 molar,0.2033 ± 0.0134 millimolar
same,Glycerol Release with Agent (medium concentration in millimolar),[2]; propanolol 1 × 10^−6 molar,0.1370 ± 0.0170 millimolar
same,Glycerol Release with Agent (medium concentration in millimolar),[2]; propanolol 1 × 10^−7 molar,0.1161 ± 0.0232 millimolar
same,% Tritium Label Release with Agent,[3]; agent 1 × 10^−5 molar,9.08%
same,% Tritium Label Release with Agent,[3]; agent 1 × 10^−6 molar,8.77%
same,% Tritium Label Release with Agent,[3]; agent 1 × 10^−7 molar,7.17%
same,% Tritium Label Release with Agent,[3]; agent 1 × 10^−8 molar,7.24%
same,% Tritium Label Release with Agent,[3]; agent 1 × 10^−9 molar,6.88%
same,% Tritium Label Release with Agent,[3]; agent 1 × 10^−10 molar,7.21%
same,% Tritium Label Release with Agent,[3]; agent 5 × 10^−5 molar,9.7%
same,% Tritium Label Release with Agent,[3]; agent 5 × 10^−6 molar,9.36%
same,% Tritium Label Release with Agent,[3]; agent 5 × 10^−7 molar,8.08%
same,Ability to mobilize lipids in adipocytes,"[3]; conclusion of Example 1, murine adipocytes",able to mobilize lipids
